Consider 31 molecules from US10077243B2, “Compounds for treating disorders mediated by metabotropic glutamate receptor 5, and methods of use thereof” (Sunovion Pharmaceuticals Inc., priority 2009, dated 2018).

Molecules are shown by their SMILES.

For orientation: EC50 means the concentration that produces a half-maximal response.

The target of the test is T1, human mGluR5 (Homo sapiens, UniProt P41594).
T1 construct: expressed in transfected cells; host or cells: HEK293 cells stably expressing rat GLAST (EAAT1), stably transfected with pcDNAzeo3.1 carrying synthetic human mGluR5 DNA; zeocin-selected single clones
T1 sequence (P41594 21-1212): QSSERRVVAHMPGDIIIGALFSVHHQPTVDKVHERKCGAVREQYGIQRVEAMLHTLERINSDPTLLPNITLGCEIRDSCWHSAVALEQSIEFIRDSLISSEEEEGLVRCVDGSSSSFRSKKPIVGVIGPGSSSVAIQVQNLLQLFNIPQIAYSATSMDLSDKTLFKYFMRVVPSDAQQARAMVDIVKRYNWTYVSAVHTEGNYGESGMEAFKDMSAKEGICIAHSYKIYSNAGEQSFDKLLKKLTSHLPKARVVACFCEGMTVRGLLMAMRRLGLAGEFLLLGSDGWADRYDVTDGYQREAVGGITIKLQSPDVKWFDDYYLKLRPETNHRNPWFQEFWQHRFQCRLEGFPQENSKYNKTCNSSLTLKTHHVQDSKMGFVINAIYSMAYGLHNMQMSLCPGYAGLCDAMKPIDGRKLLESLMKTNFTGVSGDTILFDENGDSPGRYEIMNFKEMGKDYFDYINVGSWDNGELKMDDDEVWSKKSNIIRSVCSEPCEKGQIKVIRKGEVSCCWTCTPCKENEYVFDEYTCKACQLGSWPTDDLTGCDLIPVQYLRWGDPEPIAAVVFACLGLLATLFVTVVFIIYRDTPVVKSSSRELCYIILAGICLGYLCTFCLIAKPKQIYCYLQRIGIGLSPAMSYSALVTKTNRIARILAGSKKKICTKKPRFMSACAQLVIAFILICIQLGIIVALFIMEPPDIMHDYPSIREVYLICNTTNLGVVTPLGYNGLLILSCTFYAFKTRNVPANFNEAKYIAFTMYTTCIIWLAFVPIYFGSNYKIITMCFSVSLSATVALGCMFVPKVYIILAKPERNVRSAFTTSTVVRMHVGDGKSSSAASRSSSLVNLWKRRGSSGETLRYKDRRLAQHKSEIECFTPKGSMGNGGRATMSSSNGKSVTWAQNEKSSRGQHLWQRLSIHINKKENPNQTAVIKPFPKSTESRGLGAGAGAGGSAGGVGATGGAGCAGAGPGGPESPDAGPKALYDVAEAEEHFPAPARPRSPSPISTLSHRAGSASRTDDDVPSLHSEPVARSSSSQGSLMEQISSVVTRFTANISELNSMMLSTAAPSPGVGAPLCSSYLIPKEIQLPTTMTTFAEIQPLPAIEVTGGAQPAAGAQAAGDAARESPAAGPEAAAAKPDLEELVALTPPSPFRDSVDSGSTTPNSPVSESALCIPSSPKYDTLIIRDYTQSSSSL
In words: In vitro cell-based FLIPR calcium assay for positive modulation of the activation of mGluR5 by glutamate (PAM EC50). Particulars: HEK293/GLAST cells expressing recombinant human mGluR5; FLIPR calcium signal; glutamate added at its EC20; read-out: mGluR5 PAM EC50. An excerpt:
The DNA sequences encoding the structural regions for rat mGluR5 [Abe T, Sugihara H, Nawa H, Shigemoto R, Mizuno N, Nakanishi S (1992) “Molecular characterization of a novel metabotropic glutamate receptor mGluR5 coupled to inositol phosphate/Ca^2+ signal transduction” Journal of Biological Chemistry vol. 267, no. 19, pp. 13361-8] and human mGluR5 [Daggett L P, Sacaan A I, Akong M, Rao S P, Hess S D, Liaw C, Urrutia A, Jachec C, Ellis S B, Dreessen J, Knöpfel T, Landwehrmeyer G B, Testa C M, Young A B, Varney M, Johnson E C, Veliçelebi (1995) “Molecular and functional characterization of recombinant human metabotropic glutamate receptor subtype 5” Neuropharmacology vol. 34, no. […] 53, no. 3, pp. 355-369] was obtained from Dr. Michael Robinson of the Children's Hospital of Philadelphia under a Material Transfer Agreement. The pcDNAzeo3.1 vector DNA, carrying either rat mGluR5 or human mGluR5, was used to transfect a sample of the HEK293/GLAST cells, and single clones that express mGluR5 were isolated from the transfected cells using zeocin selection. Expression of mGluR5 was assessed by measurement of the transient fluorescence signal elicited from HEK293/GLAST/mGluR5 cells by glutamate following the loading of the cells with a calcium-sensitive dye using a FLIPR Tetra (Fluorometric Imaging Plate Reader) (Molecular Devices, Sunnyvale, Calif.) [O'Brien J A, Lemaire W, Chen T B, Chang R S, Jacobson M A, Ha S N, Lindsley C W, Schaffhauser H J, Sur C, Pettibone D J, Conn P J, Williams D L Jr. […] 64, no. 3, pp. 731-740; Assay Guidance Manual Version 5.0, 2008, Eli Lilly and Company and NIH Chemical Genomics Center; available online HEK293/GLAST/mGluR5 cells were grown in Dulbecco's Modified Eagle Medium (DMEM) supplemented with 10% dialyzed fetal bovine serum, 20 millimolar (mM) N-2-hydroxyethylpiperazine-N′-2-ethanesulfonic acid (HEPES), penicillin, streptomycin, 1% GlutaMax™ (Invitrogen) and 50 μg/ml zeocin. Cells were grown in the media to 70-80% confluency at 37° C. under 5% CO2, 95% humidity in poly-D-lysine coated coated flasks. Cells for assays were plated into 96-well sterile standard microtiter plates (pre-coated with poly-D-lysine) at a density of 50,000 cells per well in 0.2 milliliters of media. Plated cells were allowed to settle and adhere for 30 minutes at ambient conditions, and then were incubated overnight at 37° C. under 5% CO2, 95% humidity. Several such 96-well plates were typically prepared. On the day of the assays, the components of the FLIPR calcium 4 assay kit (Molecular Devices) were dissolved according to the instructions of the dye kit's manufacturer in assay buffer (Hank's balanced salt solution (HBSS) (Gibco) supplemented with 20 mM HEPES). After removal of the growth media from the first plate, cells were loaded with calcium dye by addition of calcium dye solution (50 microliters per well) and incubation at 25° C. for 45 to 60 minutes. The first plate was placed into the FLIPR Tetra, and a dilution series of glutamate solutions in assay buffer were added to wells on the plate, followed by acquisition of fluorescence data for several minutes. The fluorescence data (maximal signal as a 4-parameter sigmoidal function of log [glutamate]) were processed by non-linear regression methods using the software package GraphPad Prism 5.01 (GraphPad Software Inc.), to yield a glutamate concentration-response curve (CRC). […] These values were, respectively, the concentrations of glutamate that elicit 20%, 50%, and 80% of the maximal FLIPR signal (observed at saturating [glutamate]). The method for measuring the concentration response of a potentiator, or positive allosteric modulator (PAM), is described here as an example. For that purpose, subsequent assays were typically performed using assay buffer containing a glutamate concentration equal to that day's EC20. […] Addition to certain wells of the same buffer containing 0.3% DMSO, but without any test compound, provided a negative control.
For the molecule `O=c1c2ccc(/C=C/c3ccccc3)cc2nc2n1CCCCC2` [Example 20.2, (E)-3-styryl-7,8,9,10-tetrahydroazepino[2,1-b]quinazolin-12(6H)-one], the 50% effective concentration (EC50) was less than 10 nM. As to `O=c1c2ccc(C#Cc3ccccn3)cc2nc2n1CCN(CCC(F)(F)F)CC2` [Example 8.21, 8-(pyridin-2-ylethynyl)-3-(3,3,3-trifluoropropyl)-2,3,4,5-tetrahydro-[1,4]diazepino[7,1-b]quinazolin-11(1H)-one], the EC50 fell in the range of 100 to 300 nM.

As for `CN1CCOCC1c1nc2cc(C#Cc3cccc(F)c3)ccc2c(=O)n1C` (stereo not shown) [Example 2.9, 7-((3-fluorophenyl)ethynyl)-3-methyl-2-(4-methylmorpholin-3-yl)quinazolin-4(3H)-one], the EC50 is less than 10 nM. For `CC1(F)CCc2nc3cc(C#Cc4ccccn4)ccc3c(=O)n2CC1` (single isomer, unassigned) [Example 6.48a/6.48b faster moving enantiomer (fraction 1), 8-fluoro-8-methyl-3-(pyridin-2-ylethynyl)-7,8,9,10-tetrahydroazepino[2,1-b]quinazolin-12(6H)-one], the EC50 was less than 10 nM. Take `CC1Cn2c(nc3cc(C#Cc4ccccn4)ccc3c2=O)CN1C` (stereo not shown) [Example 5.14, 2,3-dimethyl-9-(pyridin-2-ylethynyl)-3,4-dihydro-1H-pyrazino[2,1-b]quinazolin-6(2H)-one]: the EC50 was 30 to 100 nM. For the molecule `CCCC1CCc2nc3cc(C#Cc4ccc(F)cc4)ccc3c(=O)n2CC1` (stereo not shown) [Example 6.13, 3-((4-fluorophenyl)ethynyl)-8-propyl-7,8,9,10-tetrahydroazepino[2,1-b]quinazolin-12(6H)-one], the EC50 lay in the range of 30 to 100 nM.

Turning to `O=c1c2ccc(C#Cc3ccccn3)cc2nc2n1CC1CC21` (stereo not shown) [Example 4.27, 4-(pyridin-2-ylethynyl)-9,9a-dihydro-1H-cyclopropa[3,4]pyrrolo[2,1-b]quinazolin-7(1aH)-one], the 50% effective concentration (EC50) was 30 to 100 nM. With `COCCn1cnc2cc(C#Cc3ccc(F)cc3)ccc2c1=O` [Example 1.12, 7-((4-fluorophenyl)ethynyl)-3-(2-methoxyethyl)quinazolin-4(3H)-one], the EC50 lay in the range of 30 to 100 nM.

On to `CN1CCn2c(nc3cc(C#Cc4ccccn4)ccc3c2=O)C1` [Example 5.5, 2-methyl-9-(pyridin-2-ylethynyl)-3,4-dihydro-1H-pyrazino[2,1-b]quinazolin-6(2H)-one], for which the EC50 was 100 to 300 nM.

On to `O=c1c2ccc(C#Cc3ccccn3)cc2nc2n1CCCCN2` [Example 8.25, 10-(pyridin-2-ylethynyl)-2,3,4,5-tetrahydro-[1,3]diazepino[2,1-b]quinazolin-7(1H)-one], for which the EC50 is 10 to 30 nM. The figure for `O=c1c2ccc(C#Cc3cccc(F)c3)cc2nc2n1C(CO)CC2` (stereo not shown) [Example 3.5, 6-((3-fluorophenyl)ethynyl)-1-(hydroxymethyl)-2,3-dihydropyrrolo[2,1-b]quinazolin-9(1H)-one] is 30 to 100 nM; for `COCCc1nc2cc(C#Cc3cccc(F)c3)ccc2c(=O)[nH]1` [Example 2.13, 7-((3-fluorophenyl)ethynyl)-2-(2-methoxyethyl)quinazolin-4(3H)-one] it is 100 to 300 nM; for `O=c1c2ccc(C#Cc3cccnc3)cc2nc2n1CCC1(CC2)OCCO1` [Example 7.11] it is 300 to 1000 nM.

`O=c1c2c(nc3cc(C#Cc4ccccn4)ccn13)C[C@@H]1CCCN1C2` [Example 15.7, (S)-10-(pyridin-2-ylethynyl)-2,3,13,13a-tetrahydro-1H-pyrido[1′,2′:1,2]pyrimido[5,4-f]indolizin-6(5H)-one]: the 50% effective concentration (EC50) fell in the range of 300 to 1000 nM. For `CC1(C)CCc2nc3cc(/C=C/c4cccc(C#N)n4)ccc3c(=O)n2C1` [Example 20.13, (E)-6-(2-(8,8-dimethyl-11-oxo-7,8,9,11-tetrahydro-6H-pyrido[2,1-b]quinazolin-3-yl)vinyl)picolinonitrile] the value was 10 to 30 nM. On to `O=c1c2ccc(C#Cc3ccc(F)nc3)cc2nc2n1CCC1(CC2)OCCO1` [Example 7.15], for which the EC50 lay within 30 to 100 nM. For `CC1(F)CCc2nc3cc(C#Cc4ccccn4)ccc3c(=O)n2CC1` (stereo not shown) [Example 6.48, 8-fluoro-8-methyl-3-(pyridin-2-ylethynyl)-7,8,9,10-tetrahydroazepino[2,1-b]quinazolin-12(6H)-one] the value was less than 10 nM; for `O=c1c2ccc(C#Cc3ccc(F)c(F)c3)cc2nc2n1CCC1(CC2)OCCO1` [Example 7.5], 100 to 300 nM; for `O=c1c2ccc(C#Cc3cccc(F)c3)cc2nc2n1CCCC2` [Example 4.4], less than 10 nM.

Regarding `O=c1c2ccc(C#Cc3ccccn3)cc2nc2n1CC(F)(F)CC2` [Example 4.42, 8,8-difluoro-3-(pyridin-2-ylethynyl)-8,9-dihydro-6H-pyrido[2,1-b]quinazolin-11(7H)-one], the EC50 lay within 10 to 30 nM. For `O=c1c2ncc(C#Cc3ccccn3)cc2nc2n1C(CO)CC2` (stereo not shown) [Example 11.3, 8-(hydroxymethyl)-3-(pyridin-2-ylethynyl)-7,8-dihydropyrido[3,2-d]pyrrolo[1,2-a]pyrimidin-10(6H)-one] the value was 300 to 1000 nM. Regarding `O=c1c2ccc(C#Cc3ccccn3)cc2nc2n1CC(CO)C2` (stereo not shown) [Example 3.18, 2-(hydroxymethyl)-6-(pyridin-2-ylethynyl)-2,3-dihydropyrrolo[2,1-b]quinazolin-9(1H)-one], the EC50 was in the range of 100 to 300 nM. For `CC1Cc2nc3cc(C#Cc4ccccn4)ccc3c(=O)n2C1` (stereo not shown) [Example 3.11, 2-methyl-6-(pyridin-2-ylethynyl)-2,3-dihydropyrrolo[2,1-b]quinazolin-9(1H)-one], the EC50 was in the range of 10 to 30 nM. For `COCCc1cnc2cc(C#Cc3ccc(F)cc3)ccn2c1=O` [Example 13.11, 8-((4-fluorophenyl)ethynyl)-3-(2-methoxyethyl)-4H-pyrido[1,2-a]pyrimidin-4-one] the value was 10 to 30 nM; for `O=c1c2ccc(C#Cc3ccoc3)cc2nc2n1CCC1(CC2)OCCO1` [Example 7.56], 30 to 100 nM. For `O=c1c2ccc(C#Cc3ccccn3)cc2nc2n1CC(CO)CC2` (stereo not shown) [Example 4.32, 8-(hydroxymethyl)-3-(pyridin-2-ylethynyl)-8,9-dihydro-6H-pyrido[2,1-b]quinazolin-11(7H)-one] the value was 100 to 300 nM. `CN1CCc2nc3cc(C#Cc4ccc(F)cc4)ccn3c(=O)c2CC1` [Example 16.7, 8-((4-fluorophenyl)ethynyl)-3-methyl-2,3,4,5-tetrahydropyrido[1′,2′:1,2]pyrimido[4,5-d]azepin-12(1H)-one]: the EC50 lay in the range of 300 to 1000 nM. Regarding `CC1Cc2nc3cc(C#Cc4cccc(F)c4)ccc3c(=O)n2C1` (stereo not shown) [Example 3.8], the EC50 is less than 10 nM. The figure for `O=c1c2ccc(C#Cc3ccccn3)cc2nc2n1C1CCC2C1` (stereo not shown) [Example 3.25, 3-(pyridin-2-ylethynyl)-8,9-dihydro-6H-6,9-methanopyrido[2,1-b]quinazolin-11(7H)-one] is 10 to 30 nM; for `CCN1CCc2nc3cc(C#Cc4ccc(F)cc4)ccc3c(=O)n2CC1` [Example 8.2, 3-ethyl-8-((4-fluorophenyl)ethynyl)-2,3,4,5-tetrahydro-[1,4]diazepino[7,1-b]quinazolin-11(1H)-one] it is 100 to 300 nM; for `CC1(C)CCn2c(nc3cc(C#Cc4cccc(F)c4)ccc3c2=O)C1` [Example 4.13, 3-((3-fluorophenyl)ethynyl)-7,7-dimethyl-8,9-dihydro-6H-pyrido[2,1-b]quinazolin-11(7H)-one] it is less than 10 nM.
